Test results published in patent US20020045242A1, “Culture medium for culturing Lactobacillus clearans, and method for preserving said strain” (priority 1999, published 2002).
Where two headings read alike, the source gives them in different places.

B1: Ovalbumin: protein-based preservative (protein, UniProt P01012 2-386, looked up)
Ovalbumin: GSIGAASMEFCFDVFKELKVHHANENIFYCPIAIMSALAMVYLGAKDSTRTQINKVVRFDKLPGFGDSIEAQCGTSVNVHSSLRDILNQITKPNDVYSFSLASRLYAEERYPILPEYLQCVKELYRGGLEPINFQTAADQARELINSWVESQTNGIIRNVLQPSSVDSQTAMVLVNAIVFKGLWEKAFKDEDTQAMPFRVTEQESKPVQMMYQIGLFRVASMASEKMKILELPFASGTMSMLVLLPDEVSGLEQLESIINFEKLTEWTSSNVMEERKIKVYLPRMKMEEKYNLTSVLMAMGITDVFSSSANLSGISSAESLKISQAVHAAHAEINEAGREVVGSAEAGVDAASVSEEFRADHPFLFCIKHIATNAVLFFGRCVSP

Key:
Lactobacillus clearans [1] = experiment: Viability of Lactobacillus clearans during storage with preservatives
Method: (§1) Here, alfalfa juice and clover juice refer to liquids which are made by adding 10-fold water to alfalfa grass or clover grass to make a juice, these being used as alfalfa juice or clover juice, respectively. The amounts in which the preservatives are added are expressed in terms of the weight ratio of the preservative relative to the weight of the viable cells. […] The viability of Lactobacillus clearans is expressed as a percentage, where 100% is the viable cell count immediately after lyophilization. The viability during lyophilization is indicated as concentric circles when the viability is more than 90%, as two concentric circles to one circle when the rate is 80 to 90%, as one circle when the rate is 60 to 80%, as a square when the rate is 40 to 60%, as a triangle when the rate is 20 to 40%, and as an “x” when the rate is less than 20%.
(§2) Here, the amounts in which the preservatives were added are expressed as the weight ratio of the preservative relative to the viable cell weight. […] The viability of Lactobacillus clearans during lyophilization is indicated as two concentric circles when the viability is more than 90%, as two concentric circles to one circle when the rate is 80 to 90%, as one circle when the rate is 60 to 80%, as a square when the rate is 40 to 60%, as a triangle when the rate is 20 to 40%, and as an “x” when the rate is less than 20%.

Lactobacillus clearans [2] = experiment: Changes in titer of Lactobacillus clearans during storage with preservatives; type: cell-based
Method: as §1, §2

Lactobacillus clearans [3] = experiment: Viability of Lactobacillus clearans during lyophilization with preservatives; type: cell-based; conditions: viability class
Method: as §1, §2

Lactobacillus clearans [4] = experiment: Effect of substances added during subculture on titer of Lactobacillus clearans; type: cell-based; conditions: added to medium during subculture
Description: The most important amino acids constituting the bacterial cells or enzymes were studied by type for their effects on Lactobacillus clearans.
We looked for substances capable of such enhancement or potentiation and conducted extensive- study.

[5] = protein-amino acid-based preservative
[6] = protein-amino acid-based preservative used alone
[7] = Lactobacillus clearans, 3 months
[8] = Lactobacillus clearans, 6 months
[9] = Lactobacillus clearans, 12 months
[10] = saccharides and animal-based complex preservative
[11] = saccharides and animal-based protein·vitamin·mineral complex preservative used alone
[12] = protein-amino acid-based preservative, 100% = viable cell count immediately after lyophilization, 3 months
[13] = protein-amino acid-based preservative, 100% = viable cell count immediately after lyophilization, 6 months
[14] = protein-amino acid-based preservative, 100% = viable cell count immediately after lyophilization, 12 months

Molecule | Changes over time during storage, Changes in titer (Lactobacillus clearans [2]; [5]) | Results during lyophilization (Lactobacillus clearans [3]; [6]) | Changes over time during storage, Viability (%) 3 months (Lactobacillus clearans [1]; [7]) [%] | Changes over time during storage, Viability (%) 6 months (Lactobacillus clearans [1]; [8]) [%] | Changes over time during storage, Viability (%) 12 months (Lactobacillus clearans [1]; [9]) [%] | effect on titer of Lactobacillus clearans (Lactobacillus clearans [4]) | other results
Soluble starch |  |  |  |  |  |  | Changes over time during storage, Viability (%) 3 months (Lactobacillus clearans [1]): 60%; Changes over time during storage, Viability (%) 6 months (Lactobacillus clearans [1]): 40%; Changes over time during storage, Viability (%) 12 months (Lactobacillus clearans [1]): 15%
CC(C)C[C@H](N)C(=O)O [Leucine] | − | Δ (a triangle when the rate is 20 to 40%) | 25 | 10 | 3 |  | 
Gelatin |  | X (an “x” when the rate is less than 20%) |  |  |  |  | Changes over time during storage, Viability (%) 3 months (Lactobacillus clearans [1]): 10%; Changes over time during storage, Viability (%) 6 months (Lactobacillus clearans [1]): 3%; Changes over time during storage, Viability (%) 12 months (Lactobacillus clearans [1]): 0%
OC[C@H]1O[C@@](CO)(O[C@H]2O[C@H](CO)[C@@H](O)[C@H](O)[C@H]2O)[C@@H](O)[C@@H]1O [Sucrose] |  |  | 30 | 15 | 5 |  | Changes over time during storage, Changes in titer (Lactobacillus clearans [2]; [10]): −; Results during lyophilization (Lactobacillus clearans [3]; [11]): Δ (a triangle when the rate is 20 to 40%)
OC[C@H]1O[C@H](O[C@H]2O[C@H](CO)[C@@H](O)[C@H](O)[C@H]2O)[C@H](O)[C@@H](O)[C@@H]1O [Trehalose] |  |  |  |  |  |  | Changes over time during storage, Changes in titer (Lactobacillus clearans [2]; [10]): +; Results during lyophilization (Lactobacillus clearans [3]; [11]): ◯ (one circle when the rate is 60 to 80%); Changes over time during storage, Viability (%) 3 months (Lactobacillus clearans [1]; saccharides and animal-based complex preservative, 100% = viable cell count immediately after lyophilization, 3 months): 75%; Changes over time during storage, Viability (%) 6 months (Lactobacillus clearans [1]; saccharides and animal-based complex preservative, 100% = viable cell count immediately after lyophilization, 6 months): 50%; Changes over time during storage, Viability (%) 12 months (Lactobacillus clearans [1]; saccharides and animal-based complex preservative, 100% = viable cell count immediately after lyophilization, 12 months): 30%
N[C@@H](CC(=O)O)C(=O)O [aspartic acid] |  |  |  |  |  | extremely effective | 
N[C@@H](CS)C(=O)O [Cysteine] | + | ◯ (one circle when the rate is 60 to 80%) | 65 | 45 | 30 | extremely effective | 
NCCCC[C@H](N)C(=O)O [Lysine] | ± | Δ (a triangle when the rate is 20 to 40%) |  |  |  | extremely effective | Changes over time during storage, Viability (%) 3 months (Lactobacillus clearans [1]; [12]): 30%; Changes over time during storage, Viability (%) 6 months (Lactobacillus clearans [1]; [13]): 15%; Changes over time during storage, Viability (%) 12 months (Lactobacillus clearans [1]; [14]): 5%
[Mn+2] [manganese] |  |  |  |  |  | effective | 
Yeast extract |  |  |  |  |  |  | Changes over time during storage, Viability (%) 3 months (Lactobacillus clearans [1]): 50%; Changes over time during storage, Viability (%) 6 months (Lactobacillus clearans [1]): 30%; Changes over time during storage, Viability (%) 12 months (Lactobacillus clearans [1]): 20%
[Mo] [molybdenum] |  |  |  |  |  | effective | 
Vitamin B12 |  |  |  |  |  | effective | 
O=C(O)[C@@H]1CCCN1 [proline] |  |  |  |  |  | a rapid decrease in titer | 
calcium pantothenate |  |  |  |  |  | effective | 
O=C1O[C@H]([C@@H](O)CO)C(O)=C1O [Vitamin C] |  |  |  |  |  | effective | 
NCC(=O)O [Glycine] | − | Δ (a triangle when the rate is 20 to 40%) | 25 | 10 | 2 |  | 
Potato starch |  |  |  |  |  |  | Changes over time during storage, Viability (%) 3 months (Lactobacillus clearans [1]): 30%; Changes over time during storage, Viability (%) 6 months (Lactobacillus clearans [1]): 20%; Changes over time during storage, Viability (%) 12 months (Lactobacillus clearans [1]): 10%

Molecule | Changes over time during storage, Changes in titer (Lactobacillus clearans [2]; [5]) | Results during lyophilization (Lactobacillus clearans [3]; [6]) | Changes over time during storage, Viability (%) 3 months (Lactobacillus clearans [1]; [7]) [%] | Changes over time during storage, Viability (%) 6 months (Lactobacillus clearans [1]; [8]) [%] | Changes over time during storage, Viability (%) 12 months (Lactobacillus clearans [1]; [9]) [%] | effect on titer of Lactobacillus clearans (Lactobacillus clearans [4]) | other results
Vitamin E |  |  |  |  |  | effective | 
Nc1nc2ncc(CNc3ccc(C(=O)N[C@@H](CCC(=O)O)C(=O)O)cc3)nc2c(=O)[nH]1 [folic acid] |  |  |  |  |  | effective | 
NC(=O)c1cccnc1 [nicotinamide] |  |  |  |  |  | effective | 
C[C@H](N)C(=O)O [Alanine] | − | Δ (a triangle when the rate is 20 to 40%) | 30 | 15 | 5 |  | 
[Zn] [zinc] |  |  |  |  |  | effective | 
N[C@@H](Cc1c[nH]c2ccccc12)C(=O)O [Tryptophan] | − | Δ (a triangle when the rate is 20 to 40%) | 25 | 10 | 4 |  | 
NCCCC(=O)O | ± | □ (a square when the rate is 40 to 60%) | 65 | 45 | 25 |  | 
NCCS(=O)(=O)O [Taurine] | + | ◯ (one circle when the rate is 60 to 80%) | 70 | 50 | 35 | extremely effective | 
N[C@@H](CCC(=O)O)C(=O)O [glutamic acid] |  |  |  |  |  | extremely effective | 
CSCC[C@H](N)C(=O)O [Methionine] | + | ◯ (one circle when the rate is 60 to 80%) | 65 | 45 | 30 | extremely effective | 
OC[C@H]1O[C@@H](O[C@H]2[C@H](O)[C@@H](O)C(O)O[C@@H]2CO)[C@H](O)[C@@H](O)[C@H]1O (some centres unmarked) [Lactose] |  |  | 70 | 50 | 20 |  | Changes over time during storage, Changes in titer (Lactobacillus clearans [2]; [10]): ±; Results during lyophilization (Lactobacillus clearans [3]; [11]): □ (a square when the rate is 40 to 60%)
N=C(N)NCCC[C@H](N)C(=O)O [Arginine] |  | Δ (a triangle when the rate is 20 to 40%) | 20 | 5 | 2 |  | Changes over time during storage, Changes in titer (Lactobacillus clearans [2]): −
N[C@@H](CSSC[C@H](N)C(=O)O)C(=O)O [Cystine] | + | ◯ (one circle when the rate is 60 to 80%) | 70 | 50 | 35 | extremely effective | 
[Mg+2] [magnesium] |  |  |  |  |  | effective | 
N[C@@H](CCC(=O)[O-])C(=O)[O-].[Na+].[Na+] [Sodium glutamate] | ± | □ (a square when the rate is 40 to 60%) |  |  |  |  | Changes over time during storage, Viability (%) 3 months (Lactobacillus clearans [1]; [12]): 60%; Changes over time during storage, Viability (%) 6 months (Lactobacillus clearans [1]; [13]): 40%; Changes over time during storage, Viability (%) 12 months (Lactobacillus clearans [1]; [14]): 20%
NC(=O)C[C@H](N)C(=O)O [Asparagine] | ± | □ (a square when the rate is 40 to 60%) | 55 | 30 | 15 |  | 
B1 | + | ◯ (one circle when the rate is 60 to 80%) |  |  |  |  | Changes over time during storage, Viability (%) 3 months (Lactobacillus clearans [1]): 70%; Changes over time during storage, Viability (%) 6 months (Lactobacillus clearans [1]): 50%; Changes over time during storage, Viability (%) 12 months (Lactobacillus clearans [1]): 30%
